What was measured:
Assay in all cases: relative viability (nuclei count vs DMSO), 5 days (fraction); higher = more cells survive
[1] = compound: CCN1CCC(CC1)N2C=C(N=N2)CNC3=CC4=C(C(=CN=C4C(=C3)Cl)C#N)NC5=CC(=C(C=C5)F)Cl [KIN001-266] + CS(=O)(=O)CCNCc1ccc(-c2ccc3ncnc(Nc4ccc(OCc5cccc(F)c5)c(Cl)c4)c3c2)o1 [Lapatinib] (partner 2 µM)
Summary of the method: (§1)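 Five library-drug doses in √10 steps were combined with a fixed anchor-drug dose, or a single drug was given alone, by pin tool to lung cancer cell lines in 1536-well plates the day after seeding. Nuclei were stained and counted after 5 days. Relative viability is the nuclei count in treated wells over that in vehicle wells, taken as the median of duplicate plates.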

[2] = compound: CCN1CCC(CC1)N2C=C(N=N2)CNC3=CC4=C(C(=CN=C4C(=C3)Cl)C#N)NC5=CC(=C(C=C5)F)Cl [KIN001-266] + C[C@@H](Oc1cc(-c2cnn(C3CCNCC3)c2)cnc1N)c1c(Cl)ccc(F)c1Cl [Crizotinib] (partner 1 µM)
Summary of the method: as §1

[3] = compound: CCN1CCC(CC1)N2C=C(N=N2)CNC3=CC4=C(C(=CN=C4C(=C3)Cl)C#N)NC5=CC(=C(C=C5)F)Cl [KIN001-266] + Cc1cc(Nc2cc(N3CCN(C)CC3)nc(Sc3ccc(NC(=O)C4CC4)cc3)n2)n[nH]1 [Tozasertib] (partner 0.1 µM)
Summary of the method: as §1

[4] = compound: CCN1CCC(CC1)N2C=C(N=N2)CNC3=CC4=C(C(=CN=C4C(=C3)Cl)C#N)NC5=CC(=C(C=C5)F)Cl [KIN001-266] + Nc1ncn([C@H]2C[C@H](O)[C@@H](CO)O2)c(=O)n1 [Decitabine] (partner 2 µM)
Summary of the method: as §1

Cell Line	relative viability ([1]; first compound 0.08 µM)	relative viability ([1]; first compound 0.253 µM)	relative viability ([1]; first compound 0.8 µM)	relative viability ([1]; first compound 2.53 µM)	relative viability ([1]; first compound 8 µM)	relative viability ([2]; first compound 0.08 µM)	relative viability ([2]; first compound 0.253 µM)	relative viability ([2]; first compound 0.8 µM)	relative viability ([2]; first compound 2.53 µM)	relative viability ([2]; first compound 8 µM)	relative viability ([3]; first compound 0.08 µM)	relative viability ([3]; first compound 0.253 µM)	relative viability ([3]; first compound 0.8 µM)	relative viability ([3]; first compound 2.53 µM)	relative viability ([3]; first compound 8 µM)	relative viability ([4]; first compound 0.08 µM)	relative viability ([4]; first compound 0.253 µM)	relative viability ([4]; first compound 0.8 µM)	relative viability ([4]; first compound 2.53 µM)	relative viability ([4]; first compound 8 µM)
NCI-H1355	1.1	0.924	1.02	1.04	0.938	1.12	1.04	1.09	0.966	0.939	0.62	0.593	0.515	0.513	0.506	0.365	0.352	0.357	0.374	0.346
NCI-H1437	0.781	0.819	0.746	0.798	0.483	0.896	0.973	0.924	0.891	0.779	0.425	0.366	0.393	0.38	0.264	0.564	0.542	0.556	0.504	0.567
NCI-H1650	0.881	0.873	0.826	0.641	0.42	1.14	0.911	1.11	0.817	0.61	0.564	0.406	0.372	0.263	0.162	0.396	0.43	0.426	0.544	0.388

Reference: the supplement of paper PMC10307832
